Format in all cases: cell-based
Conditions in all cases: 100 µM chanoclavine, read-out: Inhibition Percentage (%)

Assay [1] concerns the target T1, 5-HT3A receptor V133A mutant (Homo sapiens, UniProt P46098, V128A).
T1 construct: host or cells: Xenopus laevis oocytes injected with in vitro transcribed mRNA
T1 sequence (P46098 24-478 V128A): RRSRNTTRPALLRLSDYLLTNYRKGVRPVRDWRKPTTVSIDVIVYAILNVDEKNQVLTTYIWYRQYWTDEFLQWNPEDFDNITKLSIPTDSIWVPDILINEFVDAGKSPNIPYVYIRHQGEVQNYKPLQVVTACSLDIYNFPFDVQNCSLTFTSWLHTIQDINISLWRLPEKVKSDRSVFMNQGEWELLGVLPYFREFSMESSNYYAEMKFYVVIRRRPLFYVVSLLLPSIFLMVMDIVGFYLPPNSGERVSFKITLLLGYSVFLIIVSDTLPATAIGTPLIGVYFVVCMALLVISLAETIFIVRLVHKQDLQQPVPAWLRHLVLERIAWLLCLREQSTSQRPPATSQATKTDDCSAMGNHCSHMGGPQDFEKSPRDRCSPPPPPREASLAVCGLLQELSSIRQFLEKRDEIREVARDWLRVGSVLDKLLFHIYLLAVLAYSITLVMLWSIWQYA
The assay is described as follows: two-electrode voltage clamp, V133A mutant receptor in Xenopus oocytes. As for the experimental part: (§1) The site-directed mutation of one or two amino acids was performed using sense and antisense primers and Pfu polymerase (QuickChange Site-Directed Mutagenesis Kit; Agilent, Santa Clara, CA, USA) and amplified by polymerase chain reaction (PCR) to increase the target domain. After removing the existing methylated cDNA using Dpn Ⅰ, the PCR products were transformed into Escherichia coli strain DH5α. The cDNA of the 5-HT3A receptor was linearized by Xho Ⅰ at the end of the multi-cloning site, followed by transcription using T7 polymerase and a transcription kit (mMESSAGE mMACHINE T7 Transcription Kit; Thermo Fisher Scientific, Waltham, MA, USA). […]
(§2) To isolate oocytes, female Xenopus laevis were put into a container filled with ice and left for about one hour. […] When the Xenopus oocytes were ready for injection, 50 ng of mRNA was injected with a nanoliter injector (Drummond Scientific, Vernon Hills, IL, USA). […]
(§3) The oocytes in which mRNA was expressed during the incubation period allowed for the estimation of channel or receptor properties for observing drug and ligand potential interactions using a two-electrode voltage clamp (OC-725C; Warner Instruments, Hamden, CT, USA) and Digidata (1322A; Molecular Devices, Sunnyvale, CA, USA). […] The voltage and current electrodes were filled with 3 M KCl (0.3–0.7 MΩ) and analyzed at a −80 mV holding potential. […]

The target of assay [2] is T2, 5-HT3A receptor Y153A mutant (Homo sapiens, UniProt P46098, Y148A).
T2 construct: host or cells: Xenopus laevis oocytes injected with in vitro transcribed mRNA
T2 sequence (P46098 24-478 Y148A): T1 sequence (P46098 24-478 V128A) with A105V, Y125A
The experiment in a line: two-electrode voltage clamp, Y153A mutant receptor in Xenopus oocytes. Here is the method:
as §1, §2, §3

For assay [3], the target named is T3, 5-HT3A receptor R196A mutant (Homo sapiens, UniProt P46098, R191A).
T3 construct: host or cells: Xenopus laevis oocytes injected with in vitro transcribed mRNA
T3 sequence (P46098 24-478 R191A): T1 sequence (P46098 24-478 V128A) with A105V, R168A
The assay is described as follows: two-electrode voltage clamp, R196A mutant receptor in Xenopus oocytes. Here is the method: as §1, §2, §3

Where a chain is given by its changes, count along the chain named.

Take `CN[C@@H]1Cc2c[nH]c3cccc(c23)[C@H]1/C=C(\C)CO` [chanoclavine]: the inhibition at 100 µM in assay [1] came out at 67.2 ± 9.9%; in assay [2], 56.9 ± 3.6%; in assay [3] it was 82.1 ± 2.5%.
